≈ marks a conversion by molar mass, not a printed value.
Key:
[1] = Inhibition of tubulin assembly into microtubules
KB = test: Cytotoxicity against human KB cells; assay type: functional, cell-based

IC50 [1]	Structure (SMILES)	IC50 (KB)
300 µM	COc1c(O)c(OC)c(C(=O)/C=C/c2ccccc2)c(O)c1OC [PEDICIN]	–
–	COc1c(O)c(OC)c(C(=O)[C@@H]2CC(CCC=C(C)C)=CC[C@H]2c2ccccc2)c(O)c1OC [ISOFISSISTIN]	0.15 µg/mL (≈ 0.321 µM)
–	COc1c(O)c(OC)c(C(=O)[C@@H]2CC=C(CCC=C(C)C)C[C@H]2c2ccccc2)c(O)c1OC [FISSISTIN]	0.15 µg/mL (≈ 0.321 µM)
4 µM	CC[C@]1(O)C[C@@H]2CN(CCc3c([nH]c4ccccc34)[C@@](C(=O)OC)(c3cc4c(cc3OC)N(C)[C@H]3[C@@](O)(C(=O)OC)[C@H](OC(C)=O)[C@]5(CC)C=CCN6CC[C@]43[C@@H]65)C2)C1 [VINBLASTINE]	–

— ChEMBL document CHEMBL1159278, “An antimitotic and cytotoxic chalcone from Fissistigma lanuginosum” (J Nat Prod, 1995)
